System: freshly isolated human PBMCs
Experiment: Detection of OCT4 reactive T cells in fresh PBMCs: IP10 in culture supernatant by Luminex
Format: cell-based
Conditions: PBMCs of 10 healthy donors cultured with individual peptides, 48 h

| Sequence | reactivity to individual peptides (fine specificity) |
| --- | --- |
| AETLVQARKRKRTSI [compound 61] | hot-spots of promiscuous reactivity |
| AQQLGLEKDVVRVWF [compound 72] | hot-spots of promiscuous reactivity |
| CKLRPLLQKWVEEA [compound 55] | hot-spots of promiscuous reactivity |
| DVVRVWFCNRRQKGK [compound 74] | hot-spots of promiscuous reactivity |
| EICKAETLVQARKRK [compound 60] | hot-spots of promiscuous reactivity |
| GLEKDVVRVWFCNRR [compound 73] | hot-spots of promiscuous reactivity |
| KRKRTSIENRVRGNL [compound 63] | hot-spots of promiscuous reactivity |
| LQQISHIAQQLGLEK [compound 70] | hot-spots of promiscuous reactivity |
| LSFKNMCKLRPLLQK [compound 53] | hot-spots of promiscuous reactivity |
| NLFLQCPKPTLQQIS [compound 67] | hot-spots of promiscuous reactivity |
| NMCKLRPLLQKWV [compound 54] | hot-spots of promiscuous reactivity |
| NRRQKGKRSSSDYA [compound 76] | hot-spots of promiscuous reactivity |
| NRVRGNLENLFLQCP [compound 65] | hot-spots of promiscuous reactivity |
| RQKGKRSSSDYAQR [compound 77] | hot-spots of promiscuous reactivity |
| SHIAQQLGLEKDVVR [compound 71] | hot-spots of promiscuous reactivity |
| VQARKRKRTSIENRV [compound 62] | hot-spots of promiscuous reactivity |
| VWFCNRRQKGKRSSS [compound 75] | hot-spots of promiscuous reactivity |
